Holding throughout (format): biochemical
Assay [1] has as its target T1, LATS1 (Homo sapiens, UniProt O95835).
T1 sequence (O95835 1-1130): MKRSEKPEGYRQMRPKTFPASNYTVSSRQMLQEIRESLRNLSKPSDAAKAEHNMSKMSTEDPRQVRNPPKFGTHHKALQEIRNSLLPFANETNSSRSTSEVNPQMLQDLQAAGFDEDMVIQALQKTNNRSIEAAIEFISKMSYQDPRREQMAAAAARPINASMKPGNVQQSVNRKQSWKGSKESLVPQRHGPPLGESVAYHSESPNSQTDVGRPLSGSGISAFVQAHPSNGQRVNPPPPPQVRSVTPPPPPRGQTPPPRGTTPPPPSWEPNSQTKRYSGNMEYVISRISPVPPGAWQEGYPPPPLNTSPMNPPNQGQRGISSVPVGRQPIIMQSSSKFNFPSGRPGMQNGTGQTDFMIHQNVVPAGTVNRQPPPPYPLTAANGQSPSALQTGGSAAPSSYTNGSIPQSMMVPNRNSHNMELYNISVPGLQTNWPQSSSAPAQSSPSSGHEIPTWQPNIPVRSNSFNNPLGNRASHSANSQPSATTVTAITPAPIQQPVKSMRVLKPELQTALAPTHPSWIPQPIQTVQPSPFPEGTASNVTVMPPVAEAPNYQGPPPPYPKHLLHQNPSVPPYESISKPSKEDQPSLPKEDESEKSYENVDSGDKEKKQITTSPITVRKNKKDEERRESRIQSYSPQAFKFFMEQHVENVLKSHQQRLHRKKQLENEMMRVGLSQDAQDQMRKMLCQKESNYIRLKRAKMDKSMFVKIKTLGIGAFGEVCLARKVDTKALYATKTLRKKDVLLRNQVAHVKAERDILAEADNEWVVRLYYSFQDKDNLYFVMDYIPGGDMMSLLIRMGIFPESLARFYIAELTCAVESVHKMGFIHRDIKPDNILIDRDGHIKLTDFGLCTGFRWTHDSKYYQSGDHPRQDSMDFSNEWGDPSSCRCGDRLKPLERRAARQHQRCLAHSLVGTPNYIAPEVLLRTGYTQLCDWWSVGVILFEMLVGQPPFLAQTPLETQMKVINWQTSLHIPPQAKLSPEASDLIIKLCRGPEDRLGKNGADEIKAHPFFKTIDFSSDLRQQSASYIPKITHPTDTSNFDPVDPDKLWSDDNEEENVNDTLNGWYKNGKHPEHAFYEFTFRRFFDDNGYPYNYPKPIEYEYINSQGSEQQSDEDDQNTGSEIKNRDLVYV
The assay is described as follows: RBC HotSpot kinase assay (33P-ATP, P81 filter-binding), LATS1. The method, boiled down: (§1)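 IC50 in nM was derived from 10-point, single-replicate titrations. Read-out was radiometric P81 filter binding following a 2 h room-temperature reaction with 33P-ATP, after 20 min compound preincubation.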

The target of assay [2] is AKT (Homo sapiens, UniProt P31749). The assay can be described thus: RBC HotSpot kinase assay (33P-ATP, P81 filter-binding), AKT. The method, boiled down:
as §1

In assay [3] the target is T2, LATS2 (Homo sapiens, UniProt Q9NRM7).
T2 sequence (Q9NRM7 1-1088): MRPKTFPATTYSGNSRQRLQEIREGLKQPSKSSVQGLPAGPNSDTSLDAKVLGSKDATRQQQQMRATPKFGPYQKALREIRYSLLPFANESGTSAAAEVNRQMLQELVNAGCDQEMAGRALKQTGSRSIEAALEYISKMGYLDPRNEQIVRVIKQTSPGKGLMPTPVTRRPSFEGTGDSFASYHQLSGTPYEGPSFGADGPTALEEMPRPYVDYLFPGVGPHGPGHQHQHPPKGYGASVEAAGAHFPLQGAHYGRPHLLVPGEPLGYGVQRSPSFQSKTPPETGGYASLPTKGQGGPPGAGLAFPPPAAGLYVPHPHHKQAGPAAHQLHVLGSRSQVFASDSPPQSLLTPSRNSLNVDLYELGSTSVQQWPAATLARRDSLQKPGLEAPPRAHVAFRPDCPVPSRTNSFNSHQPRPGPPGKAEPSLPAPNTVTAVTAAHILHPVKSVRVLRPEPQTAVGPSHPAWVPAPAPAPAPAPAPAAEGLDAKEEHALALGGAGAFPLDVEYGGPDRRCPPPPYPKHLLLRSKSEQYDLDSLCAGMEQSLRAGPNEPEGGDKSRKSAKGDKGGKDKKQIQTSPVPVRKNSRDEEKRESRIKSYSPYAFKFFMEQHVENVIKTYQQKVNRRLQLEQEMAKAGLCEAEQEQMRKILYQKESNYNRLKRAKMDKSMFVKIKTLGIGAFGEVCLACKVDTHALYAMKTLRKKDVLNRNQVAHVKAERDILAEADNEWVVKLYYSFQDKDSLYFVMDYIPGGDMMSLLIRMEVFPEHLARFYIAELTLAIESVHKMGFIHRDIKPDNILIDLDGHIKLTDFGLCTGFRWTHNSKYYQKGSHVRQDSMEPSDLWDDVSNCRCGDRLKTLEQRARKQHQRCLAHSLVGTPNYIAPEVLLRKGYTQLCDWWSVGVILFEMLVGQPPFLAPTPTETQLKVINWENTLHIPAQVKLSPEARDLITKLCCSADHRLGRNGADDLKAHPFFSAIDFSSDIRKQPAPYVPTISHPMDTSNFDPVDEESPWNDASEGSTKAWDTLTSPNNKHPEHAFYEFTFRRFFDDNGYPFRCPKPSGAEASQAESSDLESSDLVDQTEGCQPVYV
The assay can be described thus: RBC HotSpot kinase assay (33P-ATP, P81 filter-binding), LATS2. The essentials: as §1

Where [4] appears, read: Table 28, biochemical kinase assay, read-out: LATS1 IC50.
The mark [5] stands for this setting: Table 28, biochemical kinase assay, read-out: AKT IC50.
[6] abbreviates: Table 28, biochemical kinase assay, read-out: LATS2 IC50.

Where two headings read alike, the source gives them in different places. Some results are limits rather than exact numbers.

Chain of AKT (P31749 whole entry): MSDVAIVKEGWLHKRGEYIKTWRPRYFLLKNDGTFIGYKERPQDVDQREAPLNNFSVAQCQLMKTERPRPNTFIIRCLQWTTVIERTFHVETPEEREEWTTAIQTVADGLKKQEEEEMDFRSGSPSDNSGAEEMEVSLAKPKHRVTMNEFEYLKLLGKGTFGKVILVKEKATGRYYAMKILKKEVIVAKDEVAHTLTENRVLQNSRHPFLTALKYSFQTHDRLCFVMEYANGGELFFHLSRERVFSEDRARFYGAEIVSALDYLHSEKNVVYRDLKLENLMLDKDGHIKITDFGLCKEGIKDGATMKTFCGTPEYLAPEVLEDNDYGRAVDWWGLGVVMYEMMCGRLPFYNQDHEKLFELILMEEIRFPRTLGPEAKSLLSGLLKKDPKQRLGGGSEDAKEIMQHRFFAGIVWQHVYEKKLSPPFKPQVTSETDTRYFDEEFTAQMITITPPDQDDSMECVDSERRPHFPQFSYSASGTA

In general, IC50 refers to the point on the concentration scale where inhibition reaches its midpoint. On to `FC(F)(F)c1cc(C2CCNCC2)ccc1-c1ccnc2[nH]ccc12` [Compound 182, 4-(4-(piperidin-4-yl)-2-(trifluoromethyl)phenyl)-1H-pyrrolo[2,3-b]pyridine], for which the IC50 was 1570 nM in assay [1] (setting [4]), more than 10000 nM in assay [2] (setting [5]) and 1770 nM in assay [3] (setting [6]).

Take `CC1CNCCC1c1ccc(-c2ccnc3[nH]ccc23)cc1` (stereo not drawn) [Compound 185, 4-(4-(3-methylpiperidin-4-yl)phenyl)-1H-pyrrolo[2,3-b]pyridine]: the results for the IC50 in assay [1] (setting [4]), in assay [2] (setting [5]) and in assay [3] (setting [6]) were 70 nM, 2110 nM and 57 nM, respectively.

`Fc1cnc2[nH]ccc2c1-c1ccc(C2CCNCC2)cc1` [Compound 186, 5-fluoro-4-(4-(piperidin-4-yl)phenyl)-1H-pyrrolo[2,3-b]pyridine]: the IC50 was determined as 36 nM in assay [1] (setting [4]), 2050 nM in assay [2] (setting [5]) and 68 nM in assay [3] (setting [6]).

`c1cc(-c2ccc(C3CCNCC3)cc2)c2cc[nH]c2n1` [Compound 188, 4-(4-(piperidin-4-yl)phenyl)-1H-pyrrolo[2,3-b]pyridine]: the IC50 in assay [1] (setting [4]) came to 70 nM; in assay [2] (setting [5]), 2200 nM; in assay [3] (setting [6]) it was 75 nM.

Regarding `Fc1c[nH]c2nccc(-c3ccc(C4(C(F)(F)F)CCNCC4)cc3)c12` [Compound 189, 3-fluoro-4-(4-(4-(trifluoromethyl)piperidin-4-yl)phenyl)-1H-pyrrolo[2,3-b]pyridine], the results for the IC50 in assay [1] (setting [4]), in assay [2] (setting [5]) and in assay [3] (setting [6]) were 11 nM, 18 nM and 14 nM, respectively.

Turning to `Cc1nnc(C2(c3ccc(-c4ccnc5[nH]cc(F)c45)cc3)CCNCC2)o1` [Compound 190, 2-(4-(4-(3-fluoro-1H-pyrrolo[2,3-b]pyridin-4-yl)phenyl)piperidin-4-yl)-5-methyl-1,3,4-oxadiazole], the IC50 was 20 nM in assay [1] (setting [4]), 18 nM in assay [2] (setting [5]) and 17 nM in assay [3] (setting [6]).

As to `Fc1c[nH]c2nccc(-c3ccc(C4(c5nnco5)CCNCC4)cc3)c12` [Compound 191, 2-(4-(4-(3-fluoro-1H-pyrrolo[2,3-b]pyridin-4-yl)phenyl)piperidin-4-yl)-1,3,4-oxadiazole], the values for the IC50 in assay [1] (setting [4]), in assay [2] (setting [5]) and in assay [3] (setting [6]) were 57 nM, 200 nM and 43 nM, respectively.

Consider `Cc1cnc(C2(c3ccc(-c4ccnc5[nH]cc(F)c45)cc3)CCNCC2)o1` [Compound 192, 2-(4-(4-(3-fluoro-1H-pyrrolo[2,3-b]pyridin-4-yl)phenyl)piperidin-4-yl)-5-methyloxazole], for which the IC50 in assay [1] (setting [4]) turned out to be 29 nM; in assay [2] (setting [5]), 25 nM; in assay [3] (setting [6]), 20 nM.

Take `COC(=O)C1(c2ccc(-c3ccnc4[nH]cc(F)c34)cc2)CCN(C)CC1` [Compound 193, Methyl 4-(4-(3-fluoro-1H-pyrrolo[2,3-b]pyridin-4-yl)phenyl)-1-methylpiperidine-4-carboxylate]: the IC50 was 53 nM in assay [1], 128 nM in assay [2] and 26 nM in assay [3].

In the case of `O=C(O)C1(c2ccc(-c3ccnc4[nH]cc(F)c34)cc2)CCNCC1` [Compound 194, 4-(4-(3-fluoro-1H-pyrrolo[2,3-b]pyridin-4-yl)phenyl)piperidine-4-carboxylic acid], the IC50 in assay [1] (setting [4]), in assay [2] (setting [5]) and in assay [3] (setting [6]) was more than 10000 nM each time.

Take `Cc1nnc(C2(c3ccc(-c4ccnc5[nH]cc(F)c45)cc3)CCN(C(=O)OC(C)(C)C)CC2)o1` [Compound 195, tert-butyl 4-(4-(3-fluoro-1H-pyrrolo[2,3-b]pyridin-4-yl)phenyl)-4-(5-methyl-1,3,4-oxadiazol-2-yl)piperidine-1-carboxylate]: the IC50 in assay [1] (setting [4]) is 5790 nM; in assay [2] (setting [5]) it was more than 10000 nM; in assay [3] (setting [6]) it was 3520 nM.

On to `CC(C)(C)OC(=O)N1CCC(c2ccc(-c3ccnc4[nH]cc(F)c34)cc2)(c2nnco2)CC1` [Compound 196, tert-butyl 4-(4-(3-fluoro-1H-pyrrolo[2,3-b]pyridin-4-yl)phenyl)-4-(1,3,4-oxadiazol-2-yl)piperidine-1-carboxylate], for which the half-inhibitory concentration (IC50) in assay [1] (setting [4]), in assay [2] (setting [5]) and in assay [3] (setting [6]) was more than 10000 nM throughout.

For the compound `Fc1c[nH]c2nccc(-c3ccc(C4(C(F)(F)F)CCNCC4)cc3Cl)c12` [Compound 197, 4-(2-chloro-4-(4-(trifluoromethyl)piperidin-4-yl)phenyl)-3-fluoro-1H-pyrrolo[2,3-b]pyridine], the IC50 is 424 nM in assay [1] (setting [4]), 85 nM in assay [2] (setting [5]) and 195 nM in assay [3] (setting [6]).

For the compound `COC(=O)C1(c2ccc(-c3ccnc4[nH]cc(F)c34)cc2Cl)CCNCC1` [Compound 198, methyl 4-(2-chloro-4-(3-fluoro-1H-pyrrolo[2,3-b]pyridin-4-yl)phenyl)piperidine-4-carboxylate], the IC50 in assay [1] (setting [4]) is 7.4 nM; in assay [2] (setting [5]) it was 124 nM; in assay [3] (setting [6]), 10 nM.

With `CCC1(c2ccc(-c3ccnc4[nH]cc(F)c34)cc2Cl)CCNCC1` [Compound 199, 4-(3-chloro-4-(4-ethylpiperidin-4-yl)phenyl)-3-fluoro-1H-pyrrolo[2,3-b]pyridine], the IC50 in assay [1] (setting [4]) is 38 nM; in assay [2] (setting [5]), 463 nM; in assay [3] (setting [6]), 34 nM.

Turning to `CC1(c2ccc(-c3ccnc4[nH]cc(F)c34)cc2Cl)CCNCC1` [Compound 200, 4-(3-chloro-4-(4-methylpiperidin-4-yl)phenyl)-3-fluoro-1H-pyrrolo[2,3-b]pyridine], the IC50 turned out to be 34 nM in assay [1] (setting [4]), 12 nM in assay [2] (setting [5]) and 20 nM in assay [3] (setting [6]).

For `CC(C)c1cc(-c2ccnc3[nH]cc(-c4ccccc4)c23)ccc1CN` [Compound 202, (2-isopropyl-4-(3-phenyl-1H-pyrrolo[2,3-b]pyridin-4-yl)phenyl)methanamine], the IC50 is 17 nM in assay [1] (setting [4]), 743 nM in assay [2] (setting [5]) and 7 nM in assay [3] (setting [6]).

For the compound `CC(C)(C)Nc1cc(-c2ccnc3[nH]ccc23)ccc1CN` [Compound 203, 2-(aminomethyl)-N-(tert-butyl)-5-(1H-pyrrolo[2,3-b]pyridin-4-yl)aniline], the IC50 in assay [1] (setting [4]) stood at 70.3 nM; in assay [2] (setting [5]) it was 1380 nM; in assay [3] (setting [6]), 135 nM.

As to `Fc1ccccc1CNCc1ccc(-c2ccnc3[nH]ccc23)cc1` [Compound 204, N-(4-(1H-pyrrolo[2,3-b]pyridin-4-yl)benzyl)-1-(2-fluorophenyl)methanamine], the IC50 in assay [1] (setting [4]) came out at 15.9 nM; in assay [2] (setting [5]) it was 1430 nM; in assay [3] (setting [6]) it was 33.1 nM.

These data come from patent publication US20250361230A1, “LATS Inhibitors and Uses Thereof” (The USA, as Represented by the Secretary, Dept. of Heath …, priority 2022, published 2025).
